Reference: patent publication US20100099698A1, “Compositions for Improving Skin Conditions Comprising Matrine or Its Oxidized Derivatives” (Biospectrum Inc., priority 2007, published 2010)
Where two headings read alike, the source gives them in different places.

Columns and labels:
Interleukin-2 promoter = test: Interleukin-2 luciferase reporter activity in PHA-activated Jurkat cells; format: cell-based, Human; conditions: PHA alone = 100
Description: Interleukin-2 promoter was reported to play an important role in the generation of cytokine related to inflammatory. The activity of interleukin-2 luciferase was measured using the following method: […] Following 24 hr, the cell was collected and the luciferase activity was measured using luminometer (Berthold Technologies GmbH&Co.KG, Germany).

COX (cyclooxygenase) = test: COX inhibitory ability in LPS-treated THP-1 cells, [1-14C] arachidonic acid, TLC; format: cell-based, human; conditions: LPS alone = 100
Description: To determine whether matrine and oxymatrine had anti-inflammatory effects, the experiment of COX (cyclooxygenase) inhibitory ability was carried out using human monocytic cell, THP-1 cell (Korean Cell Line Bank) according to conventional method. […] J. Van de Ouderaaa and Muytenhek. THP-1 cell line was cultivated and aliquoted into 24-well plate. The incubation volume per well was adjusted to 500 μl, 2 μl of the sample compound, which dissolved in […] (1 μg/ml, Sigma) and solvents described in the following Table 9 respectively, was added and cultivated for 24-48 hr under the same condition. After 24-48 hr, calcium ionophore (Sigma) and [1-14C] arachidonic acid 1 μl (in EtOH, 0.1 μCi/ml, Sigma) were added to each well, and cultivated for 10 min under the same condition. Following the cultivation, citric acid was added to each well for adjusting to pH 3.5, shaked, each 500 μl of cultivation solution taken from the plate was aliquoted into micro centrifuge tube, 700 μl of ethylacetate was added to thereto, and the solution was shaking extracted for 10 min. 500 μl of ethylacetate layer was concentrated using speed vacuum dryer for 20 min, 20 μl of the residual was dissolved in ethylacetate, and the resultant was employed with authentic standard in TLC plate. The radioactive band was identified by authentic eicosanoid standards, the radioactivity of the identified band was measured using BAS 2000 bio-imaging analyzer (Fuji, JP) (Table 9).

human skin = test: 24-hour cumulative patch test (Finn chamber), cumulative skin irritation; format: in vivo; conditions: for Average reaction level: 9 patches, 30 adults, safe if below 3
Description: In order to find out whether matrine and oxymatrine are safe for use on human skin, a skin safety test was conducted. Suitable for this was a cumulative skin irritation test.
Squalene-based preparations containing matrine and oxymatrine in amounts of 1%, 5%, and 10% were applied in patches 9 times to the upper arms of 30 healthy adults once every other day for a total time period of 24 hours. This 24-hour cumulative patch test was conducted to determine whether matrine and oxymatrine irritates the skin or not.
The Finn chamber (Epitest Ltd, Finland) was chosen as the patching method. The above preparation for external use on the skin was dropped into each chamber in an amount of 15 μl, and a patch was applied.
Average reaction level=[{(Reaction index x reaction level)/No. of test subjects×maximum points (4 points)}×100]÷No. of test (9 times) Equation 2
Points were marked in accordance with reaction level, for example, ± for 1 point, + for 2 points, and ++ for […]. The composition can be considered safe if the average reaction level is below 3.

collagenase (MMP-1) = target: T1, collagenase (MMP-1) (Homo sapiens, UniProt P03956); test: Collagenase activity, Type 1 collagenase assay kit, PMA-induced; format: cell-based
T1 construct: Following incubation, the cell medium was collected and was used as samples; endogenous in cells; host or cells: human fibroblasts (PMA-induced)
T1 sequence (P03956 100-469): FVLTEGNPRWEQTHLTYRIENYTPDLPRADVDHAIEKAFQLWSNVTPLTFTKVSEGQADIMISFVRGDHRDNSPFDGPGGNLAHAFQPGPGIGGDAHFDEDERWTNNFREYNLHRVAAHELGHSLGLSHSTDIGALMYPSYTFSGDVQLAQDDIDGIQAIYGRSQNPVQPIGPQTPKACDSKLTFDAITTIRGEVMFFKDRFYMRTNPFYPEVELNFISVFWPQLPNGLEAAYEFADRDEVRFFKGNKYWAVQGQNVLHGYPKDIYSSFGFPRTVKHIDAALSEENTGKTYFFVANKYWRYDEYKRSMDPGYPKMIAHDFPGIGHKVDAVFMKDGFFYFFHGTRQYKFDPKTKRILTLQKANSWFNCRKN
Description: Human fibroblasts (commercially available from pacific) were seeded into a 6-well plate (2×10^5 cells/well) and the well plate was incubated in a 5% CO2 incubator for 24 hr at 37° C. After 24 hr, the medium in each well was removed and samples were treated with various concentrations, followed by incubating again for 24 hr. Following incubation, the cell medium was collected and was used as samples. To measure cytotoxicity of samples to fibroblasts, MIT reagent (1 mg/ml) was added to each well in 1/10 fold volume of the remaining medium, incubated for 3 hr and the medium was eliminated. The medium was dissolved in DMSO and its absorbance at 540 nm was measured.
As a method of measuring the activity of collagenase, an enzyme that decomposes collagen, an antibody against collagenase was used. As material inducing collagenase activity, PMA (phorbol myristate acetate, Sigma) was treated. For measuring collagenase activity, a Type 1 collagenase assay kit (Amersham Biosciences, RPN2629) was used, and the absorbance was measured using an ELISA reader (Bio-Tek ELx808™ Series Ultra Microplate Reader, U.K). The measured average values were represented as mean±standard deviation.

B16 mouse melanoma cells = test: Inhibition of melanin production in melanoma cells; format: cell-based; conditions: 72 h, read-out: Inhibitory rate of melanin production (%)
Description: After measuring the inhibition of melanin production by matrine and oxymatrine using B16 mouse melanoma cells (Korean Cell Line Bank), the measurement was compared with that for the inhibition of melanin production by arbutin, known as a melanin production inhibitor.
B16 mouse melanoma cells F10 (Korean Cell Line Bank) were seeded into each well of a 6-well plate (1×10^5 cells/well) in DMEM (Dulbecco's modified Eagle's media) containing 10% FBS (fetal bovine serum) and the cells were cultured to about more than 80% confluence by incubating in a CO2 incubator under conditions of 37° C. and 5.0% CO2. After cultivation, the medium was removed and samples were replaced in medium diluted at suitable concentration, followed by incubating for 3 days under conditions of 37° C. and 5.0% CO2. […] The cells removing medium were washed with PBS (phosphate buffer saline) and treated with trypsin to collect cells. Number of the collected cells was calculated using hematocytometer (Tiefe Depth Profondeur 0.100 mm, Paul Marienfeld GmbH & Co. KG, D.E), centrifuged at 5,000 to 10,000 rpm for 10 min and the supernatant was eliminated, thereby obtaining pellets. This cell pellets were dried at 60° C., 100 μl of 1M NaOH containing 10% DMSO was added to thereto, and intracellular melanin was obtained in incubator at 60° C. Then, the cell solution was measured for absorbance at 490 nm using microplate reader (Bio-Tek ELx8081U, U.S) and the amount of melanin per cell constant number was estimated.

[1] = 5% in squalene, Week 1, of 30 subjects
[2] = 10% in squalene, Week 1, of 30 subjects

Structure (SMILES)	IL-2 luciferase activities (Interleukin-2 promoter; 10 uM with PHA (100 ng/ml))	IL-2 luciferase activities (Interleukin-2 promoter; 100 uM with PHA (100 ng/ml))	IL-2 luciferase activities (Interleukin-2 promoter; 500 uM with PHA (100 ng/ml))	COX activities (%) (COX (cyclooxygenase); 10 uM with LPS (1 μg/ml))	COX activities (%) (COX (cyclooxygenase); 100 uM with LPS (1 μg/ml))	COX activities (%) (COX (cyclooxygenase); 500 uM with LPS (1 μg/ml))	inhibition at 1 µM (collagenase (MMP-1))	inhibition at 10 µM (collagenase (MMP-1))	inhibition at 50 µM (collagenase (MMP-1))	further results
O=C1CCC[C@@H]2[C@H]3CCCN4CCC[C@@H](CN12)[C@@H]34 [Matrine, matrine]	92	77	68	98%	87%	65%	19%	20%	32%	Average reaction level (human skin; 1% in squalene): 0; No. of test subjects with reaction, 2nd, ± (human skin; 1% in squalene, Week 1, of 30 subjects): 0; Average reaction level (human skin; 5% in squalene): 0.09; No. of test subjects with reaction, 1st, ± (human skin; [1]): 1; No. of test subjects with reaction, 2nd, ± (human skin; [1]): 0; Average reaction level (human skin; 10% in squalene): 0.18; No. of test subjects with reaction, 1st, ± (human skin; [2]): 2; No. of test subjects with reaction, 2nd, ± (human skin; [2]): 0; inhibition at 10 µM (B16 mouse melanoma cells): 11%; inhibition at 100 µM (B16 mouse melanoma cells): 31%; inhibition at 500 µM (B16 mouse melanoma cells): 39%
O=C1CCC[C@@H]2[C@H]3CCC[N+]4([O-])CCC[C@@H](CN12)[C@@H]34 (some centres unmarked) [Oxymatrine, oxymatrine]	95	78	62	94%	81%	71%	6%	13%	17%	No. of test subjects with reaction, 1st, ± (human skin; human, in vivo): 2; No. of test subjects with reaction, 2nd, ± (human skin; human, in vivo): 0; No. of test subjects with reaction, 1st, ± (human skin; in vivo): −; inhibition at 10 µM (B16 mouse melanoma cells; 10 μM, 3 days): 13%; inhibition at 100 µM (B16 mouse melanoma cells; 100 μM, 3 days): 27%; inhibition at 500 µM (B16 mouse melanoma cells; 500 μM, 3 days): 31%
